Target: Carbonic anhydrase 9 (Homo sapiens, UniProt Q16790)
Test: Binding affinity to human carbonic anhydrase 9 by stopped flow CO2 hydration assay

Compound | Ki
NS(=O)(=O)c1ccc(-n2nnc(C(=O)c3ccccn3)c2C(F)(F)F)cc1 | 0.156 µM
NS(=O)(=O)c1ccc(-n2cc(C(=O)c3ccc(Br)cc3)nn2)cc1 | 0.0447 µM
NS(=O)(=O)c1ccc(-n2nnc(C(=O)c3ccco3)c2C(F)(F)F)cc1 | 0.19 µM
NS(=O)(=O)c1ccc(-n2cc(C(=O)c3ccccc3)nn2)cc1 | 0.136 µM
COc1ccc(C(=O)c2nnn(-c3ccc(S(N)(=O)=O)cc3)c2C(F)(F)F)cc1 | 0.141 µM
Cc1ccc(C(=O)c2cn(-c3ccc(S(N)(=O)=O)cc3)nn2)cc1 | 0.324 µM
NS(=O)(=O)c1ccc(-n2cc(C(=O)c3ccc4ccccc4c3)nn2)cc1 | 0.127 µM
COc1ccc(C(=O)c2cn(-c3ccc(S(N)(=O)=O)cc3)nn2)cc1 | 0.145 µM
NS(=O)(=O)c1ccc(-n2cc(C(=O)c3cccs3)nn2)cc1 | 0.362 µM
NS(=O)(=O)c1ccc(-n2nnc(C(=O)c3cccs3)c2C(F)(F)F)cc1 | 0.0454 µM
NS(=O)(=O)c1ccc(-n2nnc(C(=O)c3ccc(F)cc3)c2C(F)(F)F)cc1 | 0.0381 µM
NS(=O)(=O)c1ccc(-n2cc(C(=O)c3ccco3)nn2)cc1 | 0.217 µM
Cc1ccc(C(=O)c2nnn(-c3ccc(S(N)(=O)=O)cc3)c2C(F)(F)F)cc1 | 0.144 µM
NS(=O)(=O)c1ccc(-n2nnc(C(=O)c3ccc(Cl)cc3)c2C(F)(F)F)cc1 | 0.0482 µM
NS(=O)(=O)c1ccc(-n2nnc(C(=O)c3ccc4ccccc4c3)c2C(F)(F)F)cc1 | 0.248 µM
NS(=O)(=O)c1ccc(-n2cc(C(=O)c3ccc(Cl)cc3)nn2)cc1 | 0.0273 µM
NS(=O)(=O)c1ccc(-n2nnc(C(=O)c3ccc(Br)cc3)c2C(F)(F)F)cc1 | 0.0358 µM
NS(=O)(=O)c1ccc(-n2cc(C(=O)c3ccc(F)cc3)nn2)cc1 | 0.0478 µM
NS(=O)(=O)c1ccc(-n2nnc(C(=O)c3ccccc3)c2C(F)(F)F)cc1 | 0.0398 µM
NS(=O)(=O)c1ccc(-n2cc(C(=O)c3ccccn3)nn2)cc1 | 0.182 µM

From ChEMBL document CHEMBL4152310, “Design and synthesis of novel benzenesulfonamide containing 1,2,3-triazoles as potent human carbonic anhydrase isoforms I, II, IV and IX inhibitors” (Eur J Med Chem, 2018)
